Assay results as given in the supplement of paper PMC6045584.
± gives the standard deviation of the averaged measurements.

What was measured:
IMATINIB = compound: Cc1ccc(NC(=O)c2ccc(CN3CCN(C)CC3)cc2)cc1Nc1nccc(-c2cccnc2)n1 [IMATINIB]; test: surviving fraction relative to DMSO-only wells; higher = less growth inhibition; conditions: exposure time: 5 days
Procedure, shortened: (§1)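 Tumour cell lines in log phase were plated in 384-well plates at 250–500 cells per well, then, after 24 hours, exposed continuously for five days to inhibitors at 0.5, 1, 5, 10, 50, 100, 500 and 1000 nM. Viability came from CellTiter-Glo luminescence, and surviving fraction is that signal normalised to the median of DMSO-only wells. Plates were read after 10 minutes at room temperature, and each line, screened three times, was kept only when replicate Pearson r was >0.7 and median Z' was >0.3.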

VORINOSTAT = compound: O=C(CCCCCCC(=O)Nc1ccccc1)NO [VORINOSTAT]; test: as above; conditions: exposure time: 5 days
Procedure, shortened: as §1

| Test System | surviving fraction (IMATINIB; 0.5 nM) | surviving fraction (IMATINIB; 1 nM) | surviving fraction (IMATINIB; 5 nM) | surviving fraction (IMATINIB; 10 nM) | surviving fraction (IMATINIB; 50 nM) | surviving fraction (IMATINIB; 100 nM) | surviving fraction (IMATINIB; 500 nM) | surviving fraction (IMATINIB; 1000 nM) | surviving fraction (VORINOSTAT; 0.5 nM) | surviving fraction (VORINOSTAT; 1 nM) | surviving fraction (VORINOSTAT; 5 nM) | surviving fraction (VORINOSTAT; 10 nM) | surviving fraction (VORINOSTAT; 50 nM) | surviving fraction (VORINOSTAT; 100 nM) | surviving fraction (VORINOSTAT; 500 nM) | surviving fraction (VORINOSTAT; 1000 nM) |
| --- | --- | --- | --- | --- | --- | --- | --- | --- | --- | --- | --- | --- | --- | --- | --- | --- |
| HCC1954 BREAST | 1.2 ± 0.15 | 1.28 ± 0.091 | 1.23 ± 0.12 | 1.27 ± 0.045 | 0.9283 ± 0.006 | 0.887 ± 0.025 | 1.07 ± 0.1 | 1 ± 0.0071 | 0.802 ± 0.19 | 0.823 ± 0.26 | 1.07 ± 0.36 | 1.18 ± 0.13 | 1.345 ± 0.0064 | 1.37 ± 0.21 | 0.839 ± 0.022 | 0.42875 ± 0.00035 |
| HCT15 LARGE INTESTINE | 1.13 ± 0.027 | 1.1 ± 0.035 | 1.12 ± 0.024 | 1.12 ± 0.038 | 1.15 ± 0.08 | 1.119 ± 0.011 | 1.18 ± 0.054 | 1.14 ± 0.046 | 0.9863 ± 0.0055 | 0.938 ± 0.023 | 0.963 ± 0.044 | 0.867 ± 0.067 | 1.05 ± 0.028 | 1.06 ± 0.03 | 0.98 ± 0.019 | 0.674 ± 0.056 |
| HELA CERVIX | 1.13 ± 0.034 | 1.04 ± 0.039 | 1.03 ± 0.056 | – | – | 1.1 ± 0.016 | 1.14 ± 0.086 | 1.09 ± 0.043 | 0.955 ± 0.049 | 0.942 ± 0.066 | 0.972 ± 0.042 | 0.939 ± 0.07 | 1.07 ± 0.057 | 1.06 ± 0.064 | 1.11 ± 0.037 | 1.01 ± 0.092 |
| HOS BONE | 1.03 ± 0.02 | – | 1.04 ± 0.028 | 1.047 ± 0.0078 | – | 1.06 ± 0.023 | 1.03 ± 0.037 | – | 0.957 ± 0.017 | 1 ± 0.022 | 0.9643 ± 0.0076 | 0.989 ± 0.017 | 1.05 ± 0.019 | 1.07 ± 0.029 | 0.948 ± 0.034 | 0.967 ± 0.021 |
| HOSMNG BONE | 1.04 ± 0.12 | 1.01 ± 0.067 | 0.994 ± 0.085 | 1 ± 0.019 | 1.09 ± 0.1 | 1.14 ± 0.073 | – | 1.07 ± 0.14 | 0.994 ± 0.12 | 0.94 ± 0.091 | 0.996 ± 0.17 | 1.06 ± 0.064 | 0.999 ± 0.048 | 1.09 ± 0.063 | 1.06 ± 0.023 | 1.09 ± 0.02 |
| HSSYII SYNOVIAL | 1 ± 0.1 | 0.967 ± 0.026 | – | 1.04 ± 0.049 | 0.966 ± 0.021 | 0.998 ± 0.033 | 0.971 ± 0.063 | 0.948 ± 0.024 | 0.913 ± 0.023 | 0.87 ± 0.025 | 0.927 ± 0.044 | 0.873 ± 0.016 | 1.06 ± 0.25 | 0.858 ± 0.066 | 0.436 ± 0.012 | 0.201 ± 0.011 |
| HT1080 SOFT TISSUE | 1.045 ± 0.01 | 1.074 ± 0.0023 | 1.1 ± 0.048 | 1.07 ± 0.021 | 1.04 ± 0.036 | 1.03 ± 0.033 | – | – | 1.02 ± 0.046 | 1.02 ± 0.015 | 1.05 ± 0.039 | 1.02 ± 0.034 | 0.951 ± 0.028 | 0.914 ± 0.017 | 0.671 ± 0.048 | 0.418 ± 0.029 |
| HU09 BONE | 1.05 ± 0.19 | 1.01 ± 0.034 | 1.16 ± 0.038 | – | 0.878 ± 0.084 | 0.89 ± 0.0044 | 0.554 ± 0.027 | 0.483 ± 0.026 | 0.943 ± 0.054 | 0.922 ± 0.041 | 0.931 ± 0.095 | 0.969 ± 0.053 | 1.01 ± 0.092 | 0.968 ± 0.13 | 0.721 ± 0.072 | 0.4 ± 0.013 |
| HUO3N1 BONE | 1.06 ± 0.039 | 0.9677 ± 0.0058 | 1.072 ± 0.0071 | 1.04 ± 0.027 | – | – | 0.892 ± 0.038 | 0.878 ± 0.062 | 1.03 ± 0.016 | 0.975 ± 0.051 | 0.988 ± 0.027 | 0.964 ± 0.032 | 1.012 ± 0.0098 | 1.06 ± 0.081 | 0.987 ± 0.032 | 0.559 ± 0.011 |
| JIMT1 BREAST | 1.04 ± 0.047 | 1 ± 0.051 | 1.03 ± 0.029 | 0.99 ± 0.028 | – | 1.08 ± 0.039 | 1.03 ± 0.056 | 1.03 ± 0.045 | 0.924 ± 0.0097 | 0.995 ± 0.017 | 1.01 ± 0.037 | 0.986 ± 0.013 | 1.07 ± 0.027 | 1.006 ± 0.01 | 0.686 ± 0.01 | 0.448 ± 0.037 |
| JURKAT HAEMATOPOIETIC AND LYMPHOID TISSUE | 1.05 ± 0.031 | 1.07 ± 0.031 | 0.986 ± 0.034 | – | 0.994 ± 0.032 | 1.02 ± 0.038 | 1.03 ± 0.039 | 1.04 ± 0.041 | 1.1 ± 0.026 | 1.105 ± 0.01 | 1.09 ± 0.032 | 1.05 ± 0.02 | 1.04 ± 0.013 | 1.01 ± 0.023 | 0.696 ± 0.037 | 0.039 ± 0.001 |
| KPD BONE | 1.077 ± 0.008 | 0.983 ± 0.068 | 1.11 ± 0.043 | 1.1 ± 0.082 | 1.16 ± 0.067 | 1.05 ± 0.097 | – | 0.99 ± 0.023 | 0.943 ± 0.058 | 0.981 ± 0.032 | 1.09 ± 0.068 | 1.02 ± 0.067 | 1.07 ± 0.074 | 0.994 ± 0.083 | 0.907 ± 0.048 | 0.65 ± 0.021 |
| LM7 BONE | – | – | – | 1.11 ± 0.082 | 1.19 ± 0.074 | 1.17 ± 0.063 | 1.04 ± 0.016 | 0.959 ± 0.11 | 1.01 ± 0.1 | 0.999 ± 0.041 | 1.09 ± 0.059 | 1.03 ± 0.08 | 1.11 ± 0.12 | 1.1 ± 0.04 | 0.934 ± 0.12 | 0.8 ± 0.032 |
| LNCAP PROSTATE | – | 1.1 ± 0.1 | 0.968 ± 0.068 | – | 0.967 ± 0.14 | 0.986 ± 0.049 | – | – | 1.11 ± 0.14 | 0.952 ± 0.22 | 0.842 ± 0.19 | 0.861 ± 0.053 | 0.904 ± 0.15 | 0.784 ± 0.042 | 0.361 ± 0.055 | 0.159 ± 0.016 |
| MCF7 BREAST | 0.988 ± 0.064 | – | 0.97 ± 0.03 | 0.955 ± 0.062 | 1.04 ± 0.018 | 1.01 ± 0.033 | 1.05 ± 0.043 | 0.986 ± 0.014 | 0.854 ± 0.026 | 0.839 ± 0.033 | 0.864 ± 0.011 | 0.781 ± 0.026 | 0.977 ± 0.034 | 0.845 ± 0.028 | 0.742 ± 0.0093 | 0.648 ± 0.0092 |
| MDAMB134 BREAST | 0.896 ± 0.08 | – | – | 0.86 ± 0.057 | 1.02 ± 0.093 | 1.11 ± 0.024 | 0.994 ± 0.17 | 0.814 ± 0.15 | 0.938 ± 0.037 | 0.937 ± 0.17 | 0.987 ± 0.0099 | 0.857 ± 0.011 | 0.935 ± 0.026 | 0.949 ± 0.16 | 0.688 ± 0.04 | 0.781 ± 0.025 |
| MDAMB157 BREAST | – | 1.01 ± 0.028 | 1.02 ± 0.018 | – | – | 0.939 ± 0.021 | 0.956 ± 0.018 | 0.855 ± 0.11 | 0.889 ± 0.089 | 0.896 ± 0.034 | 0.939 ± 0.04 | 0.973 ± 0.069 | 1.01 ± 0.065 | 0.951 ± 0.068 | 0.825 ± 0.024 | 0.321 ± 0.04 |
| MDAMB231 BREAST | 0.9973 ± 0.0088 | 1.03 ± 0.04 | 1.01 ± 0.039 | 1.03 ± 0.022 | 1 ± 0.058 | 1.01 ± 0.027 | 0.968 ± 0.042 | 0.96 ± 0.024 | 0.995 ± 0.015 | 1 ± 0.017 | 0.993 ± 0.03 | 0.983 ± 0.025 | 1.01 ± 0.028 | 0.971 ± 0.042 | 0.805 ± 0.02 | 0.358 ± 0.0067 |
| MDAMB361 BREAST | 0.927 ± 0.066 | 0.879 ± 0.079 | 0.826 ± 0.018 | 0.878 ± 0.046 | 0.869 ± 0.082 | 0.879 ± 0.081 | – | 0.827 ± 0.087 | 0.809 ± 0.028 | 0.871 ± 0.097 | 0.796 ± 0.019 | 0.825 ± 0.037 | 0.783 ± 0.096 | 0.843 ± 0.077 | 0.596 ± 0.014 | 0.378 ± 0.015 |
| MDAMB436 BREAST | 1.01 ± 0.078 | 0.984 ± 0.11 | 0.985 ± 0.079 | 0.998 ± 0.093 | 1.04 ± 0.14 | – | 1.1 ± 0.12 | – | 0.83 ± 0.045 | 0.905 ± 0.045 | 0.854 ± 0.056 | 0.911 ± 0.086 | 0.937 ± 0.081 | 0.835 ± 0.055 | 0.766 ± 0.072 | 0.582 ± 0.066 |
| MDAMB453 BREAST | – | 1.1 ± 0.086 | 1.13 ± 0.051 | 1.12 ± 0.1 | 1.18 ± 0.034 | 1.06 ± 0.034 | 1.082 ± 0.0067 | 1.04 ± 0.011 | 0.998 ± 0.032 | 1.01 ± 0.079 | 1.03 ± 0.062 | 1.05 ± 0.065 | 1.06 ± 0.038 | 1.06 ± 0.022 | 0.785 ± 0.036 | 0.244 ± 0.0089 |
| MDAMB468 BREAST | 0.997 ± 0.075 | 1.05 ± 0.059 | 1.01 ± 0.02 | 1.06 ± 0.066 | 1.09 ± 0.081 | 1.18 ± 0.032 | 1.103 ± 0.01 | 1.06 ± 0.06 | 0.891 ± 0.052 | 0.951 ± 0.03 | 1 ± 0.044 | 0.978 ± 0.023 | 1.12 ± 0.061 | 1.133 ± 0.007 | 0.818 ± 0.036 | 0.469 ± 0.007 |
